Earlier results as cited in patent US20230310464A1, “USE OF C[…] THE TREATMENT OF SEIZURES ASSOCIATED WITH RARE […] SYNDROMES RELATED TO BRAIN INJURY” (GW Research Limited, priority 2020, published 2023).

Tests used:
[1] = test system: seizures in patients with Lennox Gastaut syndrome; conditions: 100% CBD, half also with HIE, Morales et al.; cited from earlier work
[2] = test system: HI injury in an animal model of NHIE; conditions: CBD combined with therapeutic hypothermia, GB 2504263; cited from earlier work

C=C(C)[C@@H]1CCC(C)=C[C@H]1c1c(O)cc(CCCCC)cc1O [CBD, cannabidiol]
effect on seizures in LGS patients (in words) [1]: a reduction in seizures was obtained | neuroprotection following HI injury (in words) [2]: synergistic in neuroprotection
